Source: patent publication US20110039721A1, “METHOD FOR PREDICTION ABOUT CARCINOGENICITY OF SUBSTANCE IN RODENT” (Chemicals Evaluation and Research Institute, priority 2007, published 2011)
Counter-ions that a name gives are not always drawn.

Assays:
[1] = system: mRNA expressed from the genes (A) to (D) in rat liver; experiment: Behavior of genes (mRNA expression level, oligo-DNA microarray) in rat liver after 28-day oral administration; format: in vivo
Summary of the method: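 Male F344 SPF rats, 5 weeks old, four per group, received carcinogens, non-carcinogens or solvent vehicle by oral gavage once daily for 28 days. Liver total RNA was then extracted. Changes of ≥1.5-fold or ≤1/1.5 versus vehicle control, in a consistent direction across carcinogens, counted as significant.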

[2] = system: liver; details: in vivo; cited from earlier work
[3] = system: rodent; details: in vivo; cited from earlier work
[4] = gene group (A), Unigene No. Rn.167075
[5] = gene group (C), Unigene No. Rn.120914

Cl[C@H]1[C@H](Cl)[C@H](Cl)[C@@H](Cl)[C@H](Cl)[C@H]1Cl [TS021, α-Hexachlorocyclohexane]
C+: Carcinogenicity [3]
−: Behavior of gene caused by administration of chemical substance, Gene No. 154 ([1]; rat, in vivo) | Behavior of gene caused by administration of chemical substance, Gene No. 725 ([1]; rat, in vivo) | Behavior of gene caused by administration of chemical substance, Gene No. 893 ([1]; rat, in vivo) | Behavior of gene caused by administration of chemical substance, Gene No. 1119 ([1]; rat, in vivo) | Behavior of gene caused by administration of chemical substance, Gene No. 1131 ([1]; rat, in vivo) | Behavior of gene caused by administration of chemical substance, Gene No. 1163 ([1]; rat, in vivo) | Behavior of gene caused by administration of chemical substance, Gene No. 1334 ([1]; rat, in vivo) | Behavior of gene caused by administration of chemical substance, Gene No. 1562 ([1]; rat, in vivo) | Behavior of gene caused by administration of chemical substance, Gene No. 1993 ([1]; rat, in vivo) | Behavior of gene caused by administration of chemical substance, Gene No. 2026 ([1]; rat, in vivo) | Behavior of gene caused by administration of chemical substance, Gene No. 2494 ([1]; rat, in vivo) | Behavior of gene caused by administration of chemical substance, Gene No. 2546 ([1]; rat, in vivo) | Behavior of gene caused by administration of chemical substance, Gene No. 3776 ([1]; rat, in vivo) | Behavior of gene caused by administration of chemical substance, Gene No. 3929 ([1]; rat, in vivo) | Behavior of gene caused by administration of chemical substance, Gene No. 4218 ([1]; rat, in vivo) | Behavior of gene caused by administration of chemical substance, Gene No. 4846 ([1]; rat, in vivo) | Behavior of gene caused by administration of chemical substance, Gene No. 5600 ([1]; rat, in vivo) | Behavior of gene caused by administration of chemical substance, Gene No. 5726 ([1]; rat, in vivo) | Behavior of gene caused by administration of chemical substance, Gene No. 5878 ([1]; rat, in vivo) | Behavior of gene caused by administration of chemical substance, Gene No. 6026 ([1]; rat, in vivo) | Behavior of gene caused by administration of chemical substance, Gene No. 6620 ([1]; rat, in vivo)
Cr+: Liver carcinogenicity [2]
+: Behavior of gene caused by administration of chemical substance, Gene No. 533 ([1]; rat, in vivo) | Behavior of gene caused by administration of chemical substance, Gene No. 813 ([1]; rat, in vivo) | Behavior of gene caused by administration of chemical substance, Gene No. 1494 ([1]; rat, in vivo) | Behavior of gene caused by administration of chemical substance, Gene No. 1741 ([1]; rat, in vivo) | Behavior of gene caused by administration of chemical substance, Gene No. 2045 ([1]; rat, in vivo) | Behavior of gene caused by administration of chemical substance, Gene No. 2203 ([1]; rat, in vivo) | Behavior of gene caused by administration of chemical substance, Gene No. 4095 ([1]; rat, in vivo) | Behavior of gene caused by administration of chemical substance, Gene No. 4973 ([1]; rat, in vivo) | Behavior of gene caused by administration of chemical substance, Gene No. 5634 ([1]; rat, in vivo) | Behavior of gene caused by administration of chemical substance, Gene No. 6182 ([1]; rat, in vivo) | Behavior of gene caused by administration of chemical substance, Gene No. 6303 ([1]; rat, in vivo) | Behavior of gene caused by administration of chemical substance, Gene No. 6742 ([1]; rat, in vivo)

CC(O)CCl (stereo not shown) [TS079, 1-Chloro-2-propanol]
C−: Carcinogenicity [3]
Cr−: Liver carcinogenicity [2]
+: Behavior of gene caused by administration of chemical substance, Gene No. 6182 ([1]; gene group (A), Unigene No. Rn.5834) | Behavior of gene caused by administration of chemical substance, Gene No. 2045 ([1]; gene group (B), Unigene No. Rn.19329) | Behavior of gene caused by administration of chemical substance, Gene No. 2203 ([1]; gene group (B), Unigene No. Rn.21240) | Behavior of gene caused by administration of chemical substance, Gene No. 5726 ([1]; gene group (D), Unigene No. Rn.9939)
−: Behavior of gene caused by administration of chemical substance, Gene No. 4846 ([1]; gene group (A), Unigene No. Rn.144554) | Behavior of gene caused by administration of chemical substance, Gene No. 2026 [1, 4] | Behavior of gene caused by administration of chemical substance, Gene No. 4218 [1, 4] | Behavior of gene caused by administration of chemical substance, Gene No. 5600 ([1]; gene group (A), Unigene No. Rn.9836) | Behavior of gene caused by administration of chemical substance, Gene No. 1494 ([1]; gene group (B), Unigene No. Rn.1430) | Behavior of gene caused by administration of chemical substance, Gene No. 533 ([1]; gene group (C), Unigene No. Rn.106184) | Behavior of gene caused by administration of chemical substance, Gene No. 725 ([1]; gene group (C), Unigene No. Rn.108075) | Behavior of gene caused by administration of chemical substance, Gene No. 1163 ([1]; gene group (C), Unigene No. Rn.11766) | Behavior of gene caused by administration of chemical substance, Gene No. 4973 ([1]; gene group (C), Unigene No. Rn.118529) | Behavior of gene caused by administration of chemical substance, Gene No. 4095 ([1]; gene group (C), Unigene No. Rn.119024) | Behavior of gene caused by administration of chemical substance, Gene No. 1334 [1, 5] | Behavior of gene caused by administration of chemical substance, Gene No. 6620 [1, 5] | Behavior of gene caused by administration of chemical substance, Gene No. 6303 ([1]; gene group (C), Unigene No. Rn.123063) | Behavior of gene caused by administration of chemical substance, Gene No. 5878 ([1]; gene group (C), Unigene No. Rn.143213) | Behavior of gene caused by administration of chemical substance, Gene No. 1131 ([1]; gene group (C), Unigene No. Rn.144946) | Behavior of gene caused by administration of chemical substance, Gene No. 1562 ([1]; gene group (C), Unigene No. Rn.14744) | Behavior of gene caused by administration of chemical substance, Gene No. 1741 ([1]; gene group (C), Unigene No. Rn.1647) | Behavior of gene caused by administration of chemical substance, Gene No. 893 ([1]; gene group (C), Unigene No. Rn.164817) | Behavior of gene caused by administration of chemical substance, Gene No. 6026 ([1]; gene group (C), Unigene No. Rn.167685) | Behavior of gene caused by administration of chemical substance, Gene No. 154 ([1]; gene group (C), Unigene No. Rn.185941) | Behavior of gene caused by administration of chemical substance, Gene No. 1993 ([1]; gene group (C), Unigene No. Rn.18728) | Behavior of gene caused by administration of chemical substance, Gene No. 813 ([1]; gene group (C), Unigene No. Rn.201760) | Behavior of gene caused by administration of chemical substance, Gene No. 2494 ([1]; gene group (C), Unigene No. Rn.23969) | Behavior of gene caused by administration of chemical substance, Gene No. 2546 ([1]; gene group (C), Unigene No. Rn.24561) | Behavior of gene caused by administration of chemical substance, Gene No. 3776 ([1]; gene group (C), Unigene No. Rn.43232) | Behavior of gene caused by administration of chemical substance, Gene No. 3929 ([1]; gene group (C), Unigene No. Rn.4620) | Behavior of gene caused by administration of chemical substance, Gene No. 1119 ([1]; gene group (C), Unigene No. Rn.9757) | Behavior of gene caused by administration of chemical substance, Gene No. 6742 ([1]; gene group (C), Unigene No. Rn.9779) | Behavior of gene caused by administration of chemical substance, Gene No. 5634 ([1]; gene group (C), Unigene No. Rn.9862)

Cc1ccccc1[N+](=O)[O-] [TS087, o-Nitrotoluene]
C+: Carcinogenicity [3]
+: Behavior of gene caused by administration of chemical substance ([1]; Gene No. 533, Rn.106184, group (C)) | Behavior of gene caused by administration of chemical substance ([1]; Gene No. 725, Rn.108075, group (C)) | Behavior of gene caused by administration of chemical substance ([1]; Gene No. 1494, Rn.1430, group (B)) | Behavior of gene caused by administration of chemical substance ([1]; Gene No. 2026, Rn.167075, group (A)) | Behavior of gene caused by administration of chemical substance ([1]; Gene No. 4218, Rn.167075, group (A)) | Behavior of gene caused by administration of chemical substance ([1]; Gene No. 4846, Rn.144554, group (A)) | Behavior of gene caused by administration of chemical substance ([1]; Gene No. 4973, Rn.118529, group (C)) | Behavior of gene caused by administration of chemical substance ([1]; Gene No. 5600, Rn.9836, group (A)) | Behavior of gene caused by administration of chemical substance ([1]; Gene No. 6182, Rn.5834, group (A)) | Behavior of gene caused by administration of chemical substance ([1]; Gene No. 6303, Rn.123063, group (C))
−: Behavior of gene caused by administration of chemical substance ([1]; Gene No. 154, Rn.185941, group (C)) | Behavior of gene caused by administration of chemical substance ([1]; Gene No. 813, Rn.201760, group (C)) | Behavior of gene caused by administration of chemical substance ([1]; Gene No. 893, Rn.164817, group (C)) | Behavior of gene caused by administration of chemical substance ([1]; Gene No. 1119, Rn.9757, group (C)) | Behavior of gene caused by administration of chemical substance ([1]; Gene No. 1131, Rn.144946, group (C)) | Behavior of gene caused by administration of chemical substance ([1]; Gene No. 1163, Rn.11766, group (C)) | Behavior of gene caused by administration of chemical substance ([1]; Gene No. 1334, Rn.120914, group (C)) | Behavior of gene caused by administration of chemical substance ([1]; Gene No. 1562, Rn.14744, group (C)) | Behavior of gene caused by administration of chemical substance ([1]; Gene No. 1741, Rn.1647, group (C)) | Behavior of gene caused by administration of chemical substance ([1]; Gene No. 1993, Rn.18728, group (C)) | Behavior of gene caused by administration of chemical substance ([1]; Gene No. 2045, Rn.19329, group (B)) | Behavior of gene caused by administration of chemical substance ([1]; Gene No. 2203, Rn.21240, group (B)) | Behavior of gene caused by administration of chemical substance ([1]; Gene No. 2494, Rn.23969, group (C)) | Behavior of gene caused by administration of chemical substance ([1]; Gene No. 2546, Rn.24561, group (C)) | Behavior of gene caused by administration of chemical substance ([1]; Gene No. 3776, Rn.43232, group (C)) | Behavior of gene caused by administration of chemical substance ([1]; Gene No. 3929, Rn.4620, group (C)) | Behavior of gene caused by administration of chemical substance ([1]; Gene No. 4095, Rn.119024, group (C)) | Behavior of gene caused by administration of chemical substance ([1]; Gene No. 5634, Rn.9862, group (C)) | Behavior of gene caused by administration of chemical substance ([1]; Gene No. 5726, Rn.9939, group (D)) | Behavior of gene caused by administration of chemical substance ([1]; Gene No. 5878, Rn.143213, group (C)) | Behavior of gene caused by administration of chemical substance ([1]; Gene No. 6026, Rn.167685, group (C)) | Behavior of gene caused by administration of chemical substance ([1]; Gene No. 6620, Rn.120914, group (C)) | Behavior of gene caused by administration of chemical substance ([1]; Gene No. 6742, Rn.9779, group (C))

CN(C)CCN(Cc1cccs1)c1ccccn1 [TS053, Methapyrilene HCl]
Cr+: Liver carcinogenicity [2]
C+: Carcinogenicity [3]
